Source: article PMC9396064, “The enzyme pseudooxynicotine amine oxidase from Pseudomonas putida S16 is not an oxidase, but a dehydrogenase” (The Journal of Biological Chemistry, 2022)

Target: T1, Pnao (pseudooxynicotine amine oxidase) (Pseudomonas putida, UniProt F8G0P1)
T1 construct: signal peptide removed (from Ala45 onward); N-terminal His-SUMO tag cleaved with ULP1; pET28a, E. coli BL21 (DE3); FAD-containing homodimer
Assay: X-ray crystal structure, […] Å
Format: binding
Details: crystals pH 9; oxidized FAD at the active site

T1 sequence (F8G0P1 45-496): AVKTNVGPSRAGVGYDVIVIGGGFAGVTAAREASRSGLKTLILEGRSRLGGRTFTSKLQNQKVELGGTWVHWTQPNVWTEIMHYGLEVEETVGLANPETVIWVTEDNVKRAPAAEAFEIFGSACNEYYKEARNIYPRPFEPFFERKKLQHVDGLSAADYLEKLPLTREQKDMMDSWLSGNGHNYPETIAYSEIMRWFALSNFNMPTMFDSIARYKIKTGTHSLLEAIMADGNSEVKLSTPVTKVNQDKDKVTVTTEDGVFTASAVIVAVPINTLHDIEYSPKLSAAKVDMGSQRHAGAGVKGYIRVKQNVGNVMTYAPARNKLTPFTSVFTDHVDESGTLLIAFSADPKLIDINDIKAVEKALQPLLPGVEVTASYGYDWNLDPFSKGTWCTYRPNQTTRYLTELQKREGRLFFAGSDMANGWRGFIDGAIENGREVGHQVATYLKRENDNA

Cc1cc2nc3c(=O)[nH]c(=O)nc-3n(C[C@H](O)[C@H](O)[C@H](O)COP(=O)(O)OP(=O)(O)OC[C@H]3O[C@@H](n4cnc5c(N)ncnc54)[C@H](O)[C@@H]3O)c2cc1C [flavin adenine dinucleotide]
X-ray crystal structure, 2.60 Å: Our structure of Pnao contained oxidized FAD
